Source: patent publication US6737383B1, “Herbicidal oxadiazolidines” (priority 1999, dated 2004)

What was measured:
sunflower = experiment: Test E sunflower; format: in vivo, Helianthus annuus; conditions: Preemergence
black nightshade = experiment: Test E black nightshade; format: in vivo, Solanum nigra; conditions: Preemergence
kochia = experiment: Test E kochia; format: in vivo, Kochia scoparia; conditions: Postemergence
Method in brief: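 Compounds formulated in non-phytotoxic solvent mixture with surfactant; for postemergence, sprayed on plants at 1- to 4-leaf stage grown in 60:40 sandy loam/greenhouse potting mix. Kept in greenhouse ~21 to 28 days, then visually rated against untreated controls.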

sugar beet = experiment: Test E sugar beet; format: in vivo, Beta vulgaris; conditions: Preemergence
deadnettle = experiment: Test E deadnettle; format: in vivo, Lamium amplexicaule; conditions: Preemergence
ladysthumb smartweed = experiment: Test C postemergence ladysthumb smartweed; format: in vivo, Polygonum persicaria; conditions: 0 to 100 scale, 0 no effect, 100 complete control
Method in brief: (§1)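 Foliar postemergence treatment of greenhouse plants grown in 60:40 sandy loam:potting mix; compounds delivered in non-phytotoxic solvent with surfactant. Evaluation is visual, 0–100, after ~14–21 d.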

annual bluegrass = experiment: Test E annual bluegrass; format: in vivo, Poa annua; conditions: Preemergence
giant foxtail = experiment: Test C postemergence giant foxtail; format: in vivo, Setaria faberii; conditions: 0 to 100 scale, 0 no effect, 100 complete control
Method in brief: as §1

redroot pigweed = experiment: Test E redroot pigweed; format: in vivo, Amaranthus retroflexus; conditions: Preemergence
lambsquarters = experiment: Test E lambsquarters; format: in vivo, Chenopodium album; conditions: Preemergence
rape = experiment: Test E rape; format: in vivo, Brassica napus; conditions: Preemergence
cotton = experiment: Test C postemergence cotton; format: in vivo, Gossypium hirsutum; conditions: 0 to 100 scale, 0 no effect, 100 complete control
Method in brief: as §1

galium = experiment: Test E galium; format: in vivo, Galium aparine; conditions: Preemergence
[1] = Rate 62 g/ha, 0 to 100 scale, 0 no effect, 100 complete control
[2] = Rate 125 g/ha, 0 to 100 scale (0 no effect, 100 complete control)

With `C=CCn1c(=O)on(C(=O)N(c2ccccc2)C(C)C)c1=O` [Compound 93] the “Plant response rating, Sunflower” value (sunflower; [1]) was 10, the “Plant response rating, Sunflower” value (sunflower; [2]) was 5 and the “Plant response rating, Sunflower” value (sunflower; Rate 250 g/ha, 0 to 100 scale) was 20. The “Plant response rating, Blk nightshade” value (black nightshade; [1]) was 60, the “Plant response rating, Blk nightshade” value (black nightshade; [2]) was 65 and the “Plant response rating, Blk nightshade” value (black nightshade; Rate 250 g/ha, 0 to 100 scale) was 80. The “Plant response rating, Kochia” value (kochia; Rate 62 g/ha, 0 to 100 scale) was 0, the “Plant response rating, Kochia” value (kochia; Rate 125 g/ha, 0 to 100 scale) was 0 and the “Plant response rating, Kochia” value (kochia; Rate 250 g/ha, 0 to 100 scale (0 no effect, 100 complete control)) was 0. For the same compound, the “Plant response rating, Sugar beet” value (sugar beet; [1]) was 0, the “Plant response rating, Sugar beet” value (sugar beet; [2]) was 10 and the “Plant response rating, Sugar beet” value (sugar beet; Rate 250 g/ha, 0 to 100 scale) was 5. For the same compound, the “Plant response rating, Deadnettle” value (deadnettle; [1]) was 10, the “Plant response rating, Deadnettle” value (deadnettle; [2]) was 10 and the “Plant response rating, Deadnettle” value (deadnettle; Rate 250 g/ha, 0 to 100 scale) was 85. For the same compound, the “Plant response rating Ladysthumb” value (ladysthumb smartweed; Rate 140 g/ha) was 0, the “Plant response rating Ladysthumb” value (ladysthumb smartweed; Rate 280 g/ha) was 0 and the “Plant response rating Ladysthumb” value (ladysthumb smartweed; Rate 560 g/ha) was 80. For the same compound, the “Plant response rating, Annual bluegras” value (annual bluegrass; [1]) was 10, the “Plant response rating, Annual bluegras” value (annual bluegrass; [2]) was 50 and the “Plant response rating, Annual bluegras” value (annual bluegrass; Rate 250 g/ha, 0 to 100 scale) was 65. The “Plant response rating, Giant foxtail” value (giant foxtail; Rate 140 g/ha) was 10, the “Plant response rating, Giant foxtail” value (giant foxtail; Rate 280 g/ha) was 55 and the “Plant response rating, Giant foxtail” value (giant foxtail; Rate 560 g/ha) was 80. The “Plant response rating, Giant foxtail” value (giant foxtail; Rate 1120 g/ha) was 95, the “Plant response rating, Redroot pigweed” value (redroot pigweed; [1]) was 100 and the “Plant response rating, Redroot pigweed” value (redroot pigweed; [2]) was 100. For the same compound, the “Plant response rating, Redroot pigweed” value (redroot pigweed; Rate 250 g/ha, 0 to 100 scale) was 90, the “Plant response rating, Lambsquarters” value (lambsquarters; [1]) was 100 and the “Plant response rating, Lambsquarters” value (lambsquarters; [2]) was 100. For the same compound, the “Plant response rating, Lambsquarters” value (lambsquarters; Rate 250 g/ha, 0 to 100 scale) was 100, the “Plant response rating, Rape” value (rape; [1]) was 0 and the “Plant response rating, Rape” value (rape; [2]) was 0. For the same compound, the “Plant response rating, Rape” value (rape; Rate 250 g/ha, 0 to 100 scale) was 10, the “Plant response rating Cotton” value (cotton; Rate 140 g/ha) was 15 and the “Plant response rating Cotton” value (cotton; Rate 280 g/ha) was 30. The “Plant response rating Cotton” value (cotton; Rate 560 g/ha) was 70, the “Plant response rating Cotton” value (cotton; Rate 1120 g/ha) was 85 and the “Plant response rating, Galium” value (galium; [1]) was 10. For the same compound, the “Plant response rating, Galium” value (galium; [2]) was 15 and the “Plant response rating, Galium” value (galium; Rate 250 g/ha, 0 to 100 scale) was 100.
